Among the data in the supplement of paper PMC10307832 are relative viability values, retold here.

What all share (assay): relative viability (nuclei count vs DMSO), 5 days (fraction); higher = more cells survive
Compound in test [1]: Cn1nnc2c(C(N)=O)ncn2c1=O [Temozolomide] + CC1(C)CCC(c2ccc(Cl)cc2)=C(CN2CCN(c3ccc(C(=O)NS(=O)(=O)c4ccc(N[C@H](CCN5CCOCC5)CSc5ccccc5)c(S(=O)(=O)C(F)(F)F)c4)cc3)CC2)C1 [Navitoclax] (partner 0.5 µM)
The procedure, abridged:
(§1)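 Five library-drug doses in √10 steps were combined with a fixed anchor-drug dose, or a single drug was given alone, by pin tool to lung cancer cell lines in 1536-well plates the day after seeding. Nuclei were stained and counted after 5 days. Relative viability is the nuclei count in treated wells over that in vehicle wells, taken as the median of duplicate plates.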

Compound in the test “AZD5582 + Navitoclax”: C[C@@H](C(=O)N[C@@H](C1CCCCC1)C(=O)N2CCC[C@H]2C(=O)N[C@@H]3[C@@H](CC4=CC=CC=C34)OCC#CC#CCO[C@@H]5CC6=CC=CC=C6[C@@H]5NC(=O)[C@@H]7CCCN7C(=O)[C@H](C8CCCCC8)NC(=O)[C@H](C)NC)NC [AZD5582] + CC1(C)CCC(c2ccc(Cl)cc2)=C(CN2CCN(c3ccc(C(=O)NS(=O)(=O)c4ccc(N[C@H](CCN5CCOCC5)CSc5ccccc5)c(S(=O)(=O)C(F)(F)F)c4)cc3)CC2)C1 [Navitoclax] (partner 0.5 µM)
The procedure, abridged:
as §1

Compound in a further test: C[C@@H](C(=O)N[C@@H](C1CCCCC1)C(=O)N2CCC[C@H]2C(=O)N[C@@H]3[C@@H](CC4=CC=CC=C34)OCC#CC#CCO[C@@H]5CC6=CC=CC=C6[C@@H]5NC(=O)[C@@H]7CCCN7C(=O)[C@H](C8CCCCC8)NC(=O)[C@H](C)NC)NC [AZD5582]
The procedure, abridged:
(§2)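 Lung cancer cell lines received five library-drug doses (not always all listed) spaced by √10, pinned on vehicle-anchored 1536-well plates after an overnight stay at 37 °C. Five days later, with no medium change, nuclei were Hoechst-stained, imaged at 4× and counted with MetaXpress. Viability is treated-well nuclei relative to vehicle-well nuclei, as a median across plates. Passing plates had control CV below 25% and at least one doubling.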

Compound in another test: Cn1nnc2c(C(N)=O)ncn2c1=O [Temozolomide]
The procedure, abridged: as §2

For the cell line NCI-H1703, the relative viability in test [1] (first compound 0.2 µM) turned out to be 1.21; in test [1] (first compound 0.6325 µM), 1.2; in test [1] (first compound 2 µM), 1.28; in test [1] (first compound 6.325 µM), 0.947; in test [1] (first compound 20 µM) it was 1.37; with AZD5582 + Navitoclax (first compound 0.001581 µM), 0.874. The relative viability with AZD5582 + Navitoclax (first compound 0.005 µM) was 0.807; with AZD5582 + Navitoclax (first compound 0.01581 µM), 1.03; in the test with AZD5582 + Navitoclax (first compound 0.05 µM) it was 0.557; in the test with AZD5582 (0.005 µM), 0.853; with AZD5582 (0.01581 µM), 0.952; with AZD5582 (0.05 µM), 0.925. Also, the relative viability with Temozolomide (0.2 µM) is 0.986; with Temozolomide (0.6325 µM), 0.947; in the test with Temozolomide (2 µM), 1.29; with Temozolomide (6.325 µM) it was 0.825; with Temozolomide (20 µM), 0.965.
